Results as given in US8697732B2, “Pyridine derivatives” (Actelion Pharmaceuticals Ltd., priority 2006, dated 2014).

Assays:
[1] = target: recombinant human S1P1 receptor (Homo sapiens, UniProt P21453); assay: GTPγS assay to determine EC50 values; format: biochemical; conditions: 35S-GTPγS binding, membrane preparations of CHO cells expressing recombinant human S1P1 receptor
Experimental: GTPγS binding assays are performed in 96 well microtiter plates (Nunc, 442587) in a final volume of 200 μl, using membrane preparations of CHO cells expressing recombinant human S1P1 receptor. Assay conditions are 20 mM Hepes (Fluka, 54461), 100 mM NaCl (Fluka, 71378), 5 mM MgCl2 (Fluka, 63064), 0.1% BSA (Calbiochem, 126609), 1 μM GDP (Sigma, G-7127), 2.5% DMSO (Fluka, 41644), 50 pM ^35S-GTPγS (Amersham Biosciences, SJ1320). The pH is 7.4. Test compounds are dissolved and diluted in 100% DMSO and pre-incubated at room temperature for 30 min in 150 μl of the above assay buffer, in the absence of ^35S-GTPγS. After addition of 50 μl of ^35S-GTPγS, the assay is incubated for 1 h at rt. The assay is terminated by transfer of the reaction mixture to a Multiscreen plate (Millipore, MAHFC1H60) using a cell harvester from Packard Biosciences, and the plates are washed with ice-cold 10 mM Na2HPO4/NaH2PO4 (70%/30%), dried, sealed at the bottom and, after addition of 25 μl MicroScint20 (Packard Biosciences, order#6013621), sealed on the top. Membrane-bound ^35S-GTPγS is measured with a TopCount from Packard Biosciences.
EC50 is the concentration of agonist inducing 50% of the maximal specific ^35S-GTPγS binding. Specific binding is determined by subtracting non-specific binding from maximal binding. Maximal binding is the amount of cpm bound to the Multiscreen plate in the presence of 10 μM of S1P. Non-specific binding is the amount of binding in the absence of an agonist in the assay. […] The EC50 values were determined according to the method described above: […]

circulating lymphocytes = assay: Assessment of in vivo efficacy: circulating lymphocytes after oral administration; conditions: 6 h after oral administration of 10 mg/kg to normotensive male Wistar rats, as compared to vehicle-only group
Experimental: The efficacy of the compounds of Formula (I) is assessed by measuring the circulating lymphocytes after oral administration of 3 to 30 mg/kg of a compound of Formula (I) to normotensive male Wistar rats. The animals are housed in climate-controlled conditions with a 12 h-light/dark cycle, and have free access to normal rat chow and drinking water. Blood is collected before and 3, 6 and 24 h after drug administration. Full blood is subjected to hematology using Advia Hematology system (Bayer Diagnostics, Zurich, Switzerland).
All data are presented as mean±SEM. Statistical analyses are performed by analysis of variance (ANOVA) using Statistica (StatSoft) and the Student-Newman-Keuls procedure for multiple comparisons. The null hypothesis is rejected when p<0.05.

recombinant human S1P1 receptor, sequence (P21453 whole entry): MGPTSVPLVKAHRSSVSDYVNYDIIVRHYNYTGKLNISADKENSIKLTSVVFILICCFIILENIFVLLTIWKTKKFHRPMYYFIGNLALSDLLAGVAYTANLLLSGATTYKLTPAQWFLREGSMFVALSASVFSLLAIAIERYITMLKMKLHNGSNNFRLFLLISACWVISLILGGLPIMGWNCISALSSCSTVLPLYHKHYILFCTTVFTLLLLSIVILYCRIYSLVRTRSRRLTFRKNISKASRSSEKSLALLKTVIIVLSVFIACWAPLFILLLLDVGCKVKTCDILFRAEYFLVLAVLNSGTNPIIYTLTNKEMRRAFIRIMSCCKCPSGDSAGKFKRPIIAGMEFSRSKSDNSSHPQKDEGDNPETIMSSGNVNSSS

EC50 [1] [nM] | SMILES | Lymphocyte counts (circulating lymphocytes) [%]
3.4 | Cc1cc(-c2nnc(-c3sc(C)c4c3C[C@@H]3[C@H]4C3(C)C)o2)cc(C)n1 [Example 8, 2,6-Dimethyl-4-[5-((1aS,5aR)-1,1,2-trimethyl-1,1a,5,5a-tetrahydro-3-thia-cyclopropa[a]pentalen-4-yl)-[1,3,4]oxadiazol-2-yl]-pyridine] | 
4.6 | CCc1cc(CCC(=O)c2sc(CC)c3c2CCC(C)(C)C3)cc(C)n1 [Example 4, 1-(3-Ethyl-5,5-dimethyl-4,5,6,7-tetrahydro-benzo[c]thiophen-1-yl)-3-(2-ethyl-6-methyl-pyridin-4-yl)-propan-1-one] | 

More lines, now with the values behind:

SMILES | EC50 [1] [nM] | Lymphocyte counts (circulating lymphocytes) [%]
CCc1cc(-c2noc(-c3sc(C)c4c3CC3C4C3(C)C)n2)cc(C)n1 (centres unmarked) [Example 14, 2-Ethyl-6-methyl-4-[5-(1,1,2-trimethyl-1,1a,5,5a-tetrahydro-3-thia-cyclopropa[a]pentalen-4-yl)-[1,2,4]oxadiazol-3-yl]-pyridine] | 3.7 | 
CCc1cc(C=CC(=O)c2sc(C)c3c2CC2C3C2(C)C)cc(C)n1 [Example 1, 3-(2-Ethyl-6-methyl-pyridin-4-yl)-1-((1aS,5aR)-1,1,2-trimethyl-1,1a,5,5a-tetrahydro-3-thia-cyclopropa[a]pentalen-4-yl)-propenone] | 1.3 | 
CCc1cc(-c2nnc(-c3sc(C)c4c3C[C@@H]3[C@H]4C3(C)C)o2)cc(C)n1 [Example 5, 2-Ethyl-6-methyl-4-[5-((1aS,5aR)-1,1,2-trimethyl-1,1a,5,5a-tetrahydro-3-thia-cyclopropa[a]pentalen-4-yl)-[1,3,4]oxadiazol-2-yl]-pyridine] |  | −77
